Assay: venous thrombosis (venous stasis under hypercoagulation with activated factor X, Wessler technique)
Format: in vivo, male Wistar rats
Conditions: po, administered orally, rat, thrombosis induced 4 hours after treatment, thrombus weighed
Protocol: The study is performed on unfasted male Wistar rats weighing 250 to 280 g, divided up into groups of 10 animals each. The test products are administered orally as a suspension in PEG 400. A thrombosis is induced 4 hours after this treatment and the thrombus formed is removed and weighed.

Row | Compound | inhibition in vivo at 3 mg/kg [%]
1 | Cc1c(Cl)c(=O)oc2cc(O[C@@H]3SC[C@@H](O)[C@H](O)[C@H]3O)ccc12 [Example 17, 3-chloro-4-methyl-2-oxo-2H-1-benzopyran-7-yl 5-thio-β-D-xylopyranoside] | 64
2 | CC(=O)O[C@@H]1[C@@H](OC(C)=O)[C@H](OC(C)=O)CS[C@H]1Oc1ccc2c(C)c(Cl)c(=O)oc2c1 [Example 17a, 3-chloro-4-methyl-2-oxo-2H-1-benzopyran-7-yl 2,3,4-tri-O-acetyl-5-thio-β-D-xylopyranoside] | 67
3 | Cc1c(-c2ccccc2)c(=O)oc2cc(O[C@@H]3SC[C@@H](O)[C@H](O)[C@H]3O)ccc12 [Example 18, 4-methyl-2-oxo-3-phenyl-2H-1-benzopyran-7-yl 5-thio-β-D-xylopyranoside] | 43
4 | CC(=O)O[C@@H]1[C@@H](OC(C)=O)[C@H](OC(C)=O)CS[C@H]1Oc1ccc2c(C)c(-c3ccccc3)c(=O)oc2c1 [Example 18a, 4-methyl-2-oxo-3-phenyl-2H-1-benzopyran-7-yl 2,3,4-tri-O-acetyl-5-thio-β-D-xylopyranoside] | 20
5 | CC(C)c1cc(=O)oc2cc(O[C@@H]3SC[C@@H](O)[C@H](O)[C@H]3O)ccc12 [Example 19, 4-(1-methylethyl)-2-oxo-2H-1-benzopyran-7-yl 5-thio-β-D-xylopyranoside] | 36
6 | Cc1cc(=O)c2ccc(O[C@@H]3SC[C@@H](O)[C@H](O)[C@H]3O)cc2o1 [Example 20, 2-methyl-4-oxo-4H-1-benzopyran-7-yl 5-thio-β-D-xylopyranoside] | 53
7 | CC(=O)O[C@@H]1[C@@H](OC(C)=O)[C@H](OC(C)=O)CS[C@H]1Oc1ccc2c(=O)cc(C)oc2c1 [Example 20a, 2-methyl-4-oxo-4H-1-benzopyran-7-yl 2,3,4-tri-O-acetyl-5-thio-β-D-xylopyranoside] | 20
8 | CCc1cc(=O)c2ccc(O[C@@H]3SC[C@@H](O)[C@H](O)[C@H]3O)cc2o1 [Example 21, 2-ethyl-4-oxo-4H-1-benzopyran-7-yl 5-thio-β-D-xylopyranoside] | 70
9 | CCc1cc(=O)c2ccc(O[C@@H]3SC[C@@H](OC(C)=O)[C@H](OC(C)=O)[C@H]3OC(C)=O)cc2o1 [Example 21a, 2-ethyl-4-oxo-4H-1-benzopyran-7-yl 2,3,4-tri-O-acetyl-5-thio-β-D-xylopyranoside] | 42
10 | Cc1oc2cc(O[C@@H]3SC[C@@H](O)[C@H](O)[C@H]3O)ccc2c(=O)c1C [Example 22, 2,3-dimethyl-4-oxo-4H-1-benzopyran-7-yl 5-thio-β-D-xylopyranoside] | 36
11 | CC(=O)O[C@@H]1[C@@H](OC(C)=O)[C@H](OC(C)=O)CS[C@H]1Oc1ccc2c(=O)c(C)c(C)oc2c1 [Example 22a, 2,3-dimethyl-4-oxo-4H-1-benzopyran-7-yl 2,3,4-tri-O-acetyl-5-thio-β-D-xylopyranoside] | 66
12 | Cc1cc(=O)c2ccc(S[C@@H]3SC[C@@H](O)[C@H](O)[C@H]3O)cc2o1 [Example 23, 2-methyl-4-oxo-4H-1-benzopyran-7-yl 1,5-dithio-β-D-xylopyranoside] | 26
13 | Cc1cc(=O)c2cc(O[C@@H]3SC[C@@H](O)[C@H](O)[C@H]3O)ccc2o1 [Example 24, 2-methyl-4-oxo-4H-1-benzopyran-6-yl 5-thio-β-D-xylopyranoside] | 36
14 | O=c1cc(-c2ccccc2)oc2cc(O[C@@H]3SC[C@@H](O)[C@H](O)[C@H]3O)ccc12 [Example 25, 4-oxo-2-phenyl-4H-1-benzopyran-7-yl 5-thio-β-D-xylopyranoside] | 28
15 | Cc1oc2cc(S[C@@H]3SC[C@@H](O)[C@H](O)[C@H]3O)ccc2c(=O)c1C [Example 26, 2,3-dimethyl-4-oxo-4H-1-benzopyran-7-yl 1,5-dithio-β-D-xylopyranoside] | 27
16 | CCc1cc(=O)c2ccc(S[C@@H]3SC[C@@H](O)[C@H](O)[C@H]3O)cc2o1 [Example 27, 2-ethyl-4-oxo-4H-1-benzopyran-7-yl 1,5-dithio-β-D-xylopyranoside] | 26
17 | CCc1cc(=O)c2ccc(S[C@@H]3SC[C@@H](OC(C)=O)[C@H](OC(C)=O)[C@H]3OC(C)=O)cc2o1 [Example 27a, 2-ethyl-4-oxo-4H-1-benzopyran-7-yl 2,3,4-tri-O-acetyl-1,5-dithio-β-D-xylopyranoside] | 23
18 | Cc1oc2cc(O[C@@H]3SC[C@@H](O)[C@H](O)[C@H]3O)ccc2c(=O)c1Br [Example 28, 3-bromo-2-methyl-4-oxo-4H-1-benzopyran-7-yl 5-thio-β-D-xylopyranoside] | 49
19 | CC(=O)O[C@@H]1[C@@H](OC(C)=O)[C@H](OC(C)=O)CS[C@H]1Oc1ccc2c(=O)c(Br)c(C)oc2c1 [Example 28a, 3-bromo-2-methyl-4-oxo-4H-1-benzopyran-7-yl 2,3,4-tri-O-acetyl-5-thio-β-D-xylopyranoside] | 25

Source: US5169838A, “Benzopyranone-β-D-thioxylosides and their use in therapy” (Fournier Industrie et Sante, priority 1989, dated 1992)
